Reference: PubChem BioAssay AID2060509 (Molecular Pharmacology Branch, DTP, NCI, 2025)

System: 485176-168-R4-J1-PDC spheroids with HUVEC/MSC, viability
Assay: Anticancer human tumor 485176-168-R4-J1-PDC patient-derived pancreatic adenocarcinoma cell line growth inhibition [GQUAD]
Conditions: for IC50: curve of first compound; for viability, T/C: stronger effect = lower value
Summary of the method: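 Tumor cells were grown as complex spheroids with HUVEC endothelial cells and mesenchymal stem cells as stroma. G-quadruplex stabilizers were combined with targeted agents over half-log dilutions from near the clinical Cmax, or from 10 microM.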

[1] = second compound 0.0316 µM, first compound 0.0316 µM
[2] = second compound 0.0316 µM, first compound 0.1 µM
[3] = second compound 0.0316 µM, first compound 0.316 µM
[4] = second compound 0.0316 µM, first compound 1 µM
[5] = second compound 0.0316 µM, first compound 3.16 µM
[6] = second compound 0.0316 µM, first compound 10 µM
[7] = second compound 0.1 µM, first compound 0.0316 µM
[8] = second compound 0.1 µM, first compound 0.1 µM
[9] = second compound 0.1 µM, first compound 0.316 µM
[10] = second compound 0.1 µM, first compound 1 µM
[11] = second compound 0.1 µM, first compound 3.16 µM
[12] = second compound 0.1 µM, first compound 10 µM
[13] = second compound 0.316 µM, first compound 0.0316 µM
[14] = second compound 0.316 µM, first compound 0.1 µM
[15] = second compound 0.316 µM, first compound 0.316 µM
[16] = second compound 0.316 µM, first compound 1 µM
[17] = second compound 0.316 µM, first compound 3.16 µM
[18] = second compound 0.316 µM, first compound 10 µM
[19] = second compound 1 µM, first compound 0.0316 µM
[20] = second compound 1 µM, first compound 0.1 µM
[21] = second compound 1 µM, first compound 0.316 µM
[22] = second compound 1 µM, first compound 1 µM
[23] = second compound 1 µM, first compound 3.16 µM
[24] = second compound 1 µM, first compound 10 µM
[25] = second compound 3.16 µM, first compound 0.0316 µM
[26] = second compound 3.16 µM, first compound 0.1 µM
[27] = second compound 3.16 µM, first compound 0.316 µM
[28] = second compound 3.16 µM, first compound 1 µM
[29] = second compound 3.16 µM, first compound 3.16 µM
[30] = second compound 3.16 µM, first compound 10 µM
[31] = second compound 10 µM, first compound 0.0316 µM
[32] = second compound 10 µM, first compound 0.1 µM
[33] = second compound 10 µM, first compound 0.316 µM
[34] = second compound 10 µM, first compound 1 µM
[35] = second compound 10 µM, first compound 3.16 µM
[36] = second compound 10 µM, first compound 10 µM
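Further: spheroids exposed to compounds for seven days before readout.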
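Wherever viability, T/C is given: percent viability relative to DMSO vehicle control wells as 100%.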

C=CC(=O)N1CCN(c2nc(=O)n(-c3c(C)ccnc3C(C)C)c3nc(-c4c(O)cccc4F)c(F)cc23)C(C)C1 (stereo unspecified) + Cc1cnc(CNC(=O)c2c(=O)c3ccc(N4CCCN(C)CC4)nc3n3c2sc2ccccc23)cn1
IC50 (second compound 0.0316 µM): > 10000 nM
IC50 (second compound 0.1 µM): > 10000 nM
IC50 (second compound 0.316 µM): > 10000 nM
IC50 (second compound 1 µM): > 10000 nM
IC50 (second compound 3.16 µM): < 31.6 nM
IC50 (second compound 10 µM): < 31.6 nM
viability, T/C [1]: 108%
viability, T/C [2]: 97.2%
viability, T/C [3]: 111%
viability, T/C [4]: 97.7%
viability, T/C [5]: 114%
viability, T/C [6]: 110%
viability, T/C [7]: 67.5%
viability, T/C [8]: 81.6%
viability, T/C [9]: 86.7%
viability, T/C [10]: 92.4%
viability, T/C [11]: 96.4%
viability, T/C [12]: 92.5%
viability, T/C [13]: 63.8%
viability, T/C [14]: 62.5%
viability, T/C [15]: 83.7%
viability, T/C [16]: 72.1%
viability, T/C [17]: 81.6%
viability, T/C [18]: 79.3%
viability, T/C [19]: 58%
viability, T/C [20]: 62.1%
viability, T/C [21]: 80.1%
viability, T/C [22]: 52.2%
viability, T/C [23]: 61.1%
viability, T/C [24]: 60.7%
viability, T/C [25]: 49%
viability, T/C [26]: 45.7%
viability, T/C [27]: 46.9%
viability, T/C [28]: 50.1%
viability, T/C [29]: 54.6%
viability, T/C [30]: 49.5%
viability, T/C [31]: 43.6%
viability, T/C [32]: 47.7%
viability, T/C [33]: 51%
viability, T/C [34]: 43.7%
viability, T/C [35]: 49%
viability, T/C [36]: 50.3%

CC(C)n1c(=O)n(C)c2cnc3cc(F)c(-c4ccc(OCCCN5CCCCC5)nc4)cc3c21 + Cc1cnc(CNC(=O)c2c(=O)c3ccc(N4CCCN(C)CC4)nc3n3c2sc2ccccc23)cn1
IC50 (second compound 0.0316 µM): > 10000 nM
IC50 (second compound 0.1 µM): < 31.6 nM
IC50 (second compound 0.316 µM): < 31.6 nM
IC50 (second compound 1 µM): < 31.6 nM
IC50 (second compound 3.16 µM): < 31.6 nM
IC50 (second compound 10 µM): < 31.6 nM
viability, T/C [1]: 65%
viability, T/C [2]: 50.2%
viability, T/C [3]: 63.1%
viability, T/C [4]: 59.2%
viability, T/C [5]: 62.2%
viability, T/C [6]: 61.2%
viability, T/C [7]: 40.2%
viability, T/C [8]: 47.4%
viability, T/C [9]: 35.6%
viability, T/C [10]: 50%
viability, T/C [11]: 49.2%
viability, T/C [12]: 47.5%
viability, T/C [13]: 39.6%
viability, T/C [14]: 36%
viability, T/C [15]: 30.4%
viability, T/C [16]: 33.5%
viability, T/C [17]: 34.5%
viability, T/C [18]: 41.3%
viability, T/C [19]: 27%
viability, T/C [20]: 30.2%
viability, T/C [21]: 34.2%
viability, T/C [22]: 34.5%
viability, T/C [23]: 30%
viability, T/C [24]: 34.7%
viability, T/C [25]: 36.1%
viability, T/C [26]: 34.3%
viability, T/C [27]: 33.5%
viability, T/C [28]: 34.7%
viability, T/C [29]: 29.5%
viability, T/C [30]: 25.6%
viability, T/C [31]: 27%
viability, T/C [32]: 27.7%
viability, T/C [33]: 28.9%
viability, T/C [34]: 28.2%
viability, T/C [35]: 25.2%
viability, T/C [36]: 24.5%

CC1COCCN1c1cc(-c2ccnn2C)c2ccnc(-c3ccn[nH]3)c2n1 (stereo unspecified) + Cc1cnc(CNC(=O)c2c(=O)c3ccc(N4CCCN(C)CC4)nc3n3c2sc2ccccc23)cn1
IC50 (second compound 0.0316 µM): < 31.6 nM
IC50 (second compound 0.1 µM): < 31.6 nM
IC50 (second compound 0.316 µM): < 31.6 nM
IC50 (second compound 1 µM): < 31.6 nM
IC50 (second compound 3.16 µM): < 31.6 nM
IC50 (second compound 10 µM): < 31.6 nM
viability, T/C [1]: 40.6%
viability, T/C [2]: 15.9%
viability, T/C [3]: 12.9%
viability, T/C [4]: 8.3%
viability, T/C [5]: 10.7%
viability, T/C [6]: 11.9%
viability, T/C [7]: 22.2%
viability, T/C [8]: 12.2%
viability, T/C [9]: 7.9%
viability, T/C [10]: 11.2%
viability, T/C [11]: 10.8%
viability, T/C [12]: 11.7%
viability, T/C [13]: 18.2%
viability, T/C [14]: 9.35%
viability, T/C [15]: 8.47%
viability, T/C [16]: 7.9%
viability, T/C [17]: 10.6%
viability, T/C [18]: 10.4%
viability, T/C [19]: 12.6%
viability, T/C [20]: 9.48%
viability, T/C [21]: 9.86%
viability, T/C [22]: 8.6%
viability, T/C [23]: 11.5%
viability, T/C [24]: 10.6%
viability, T/C [25]: 15%
viability, T/C [26]: 11.8%
viability, T/C [27]: 10.1%
viability, T/C [28]: 10.4%
viability, T/C [29]: 9.56%
viability, T/C [30]: 9.96%
viability, T/C [31]: 16%
viability, T/C [32]: 11%
viability, T/C [33]: 9.84%
viability, T/C [34]: 9.05%
viability, T/C [35]: 9.12%
viability, T/C [36]: 10.4%
